{
  "source": "patent US20060069132A1",
  "about": "“Azolecarboxamide herbicides” (priority 2004, published 2006)",
  "key": {"barnyardgrass [1]": {"system": "barnyardgrass", "assay": "Test A pre-/postemergence herbicide test", "assay_type": "in vivo, Echinochloa crus-galli", "summary_of_the_method": "(§1)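 Visual injury rating on a 0–100 scale (0 no effect, 100 complete control) versus untreated controls, about ten days after treatment in greenhouse. Pre: directed soil spray onto seeded sandy loam. Post: spray to runoff on plants 2–10 cm tall at one- to two-leaf stage.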"}, "giant foxtail [2]": {"system": "giant foxtail", "assay": "Test A pre-/postemergence herbicide test", "assay_type": "in vivo, Setaria faberi", "summary_of_the_method": "as §1"}, "redroot pigweed": {"system": "redroot pigweed", "assay": "Test A pre-/postemergence herbicide test", "assay_type": "in vivo, Amaranthus retroflexus", "summary_of_the_method": "as §1"}, "velvetleaf": {"system": "velvetleaf", "assay": "Test A pre-/postemergence herbicide test", "assay_type": "in vivo, Abutilon theophrasti", "summary_of_the_method": "as §1"}, "Surinam grass": {"system": "Surinam grass", "assay": "Test C pre-/postemergence herbicide test", "assay_type": "in vivo, Urochloa decumbens", "conditions": "preemergence", "summary_of_the_method": "(§2)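 Pre- and postemergence application, solvent/surfactant formulation; post at 1- to 4-leaf stage (2–18 cm). Greenhouse 12–14 d. Visual rating vs controls, 0 = no effect, 100 = complete control.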"}, "cocklebur": {"system": "cocklebur", "assay": "Test C pre-/postemergence herbicide test", "assay_type": "in vivo, Xanthium strumarium", "conditions": "for Plant response rating, Cocklebur: preemergence", "summary_of_the_method": "as §2"}, "giant foxtail [3]": {"system": "giant foxtail", "assay": "Test C pre-/postemergence herbicide test", "assay_type": "in vivo, Setaria faberi", "conditions": "preemergence", "summary_of_the_method": "as §2"}, "johnsongrass": {"system": "johnsongrass", "assay": "Test C pre-/postemergence herbicide test", "assay_type": "in vivo, Sorghum halepense", "conditions": "preemergence", "summary_of_the_method": "as §2"}, "morningglory": {"system": "morningglory", "assay": "Test C pre-/postemergence herbicide test", "assay_type": "in vivo, Ipomoea coccinea", "parameters": "key to Plant response rating, Morningglory: 0 = no effect, 100 = complete control", "conditions": "preemergence", "summary_of_the_method": "as §2"}, "eastern black nightshade": {"system": "eastern black nightshade", "assay": "Test C pre-/postemergence herbicide test", "assay_type": "in vivo, Solanum ptycanthum", "conditions": "preemergence", "summary_of_the_method": "as §2"}, "yellow nutsedge": {"system": "yellow nutsedge", "assay": "Test C pre-/postemergence herbicide test", "assay_type": "in vivo, Cyperus esculentus", "conditions": "preemergence", "summary_of_the_method": "as §2"}, "ducksalad": {"system": "ducksalad", "assay": "Test C flooded paddy test", "assay_type": "in vivo, Heteranthera limosa"}, "barnyardgrass [4]": {"system": "barnyardgrass", "assay": "Test C flooded paddy test", "assay_type": "in vivo, Echinochloa crus-galli", "summary_of_the_method": "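Greenhouse test with a 12–14 day hold after application and visual comparison with controls. Emerged plants were 1- to 4-leaf stage (2–18 cm) when sprayed postemergence, and the paddy barnyardgrass was at 2 leaves under flooded conditions. 100 = complete control.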"}, "[5]": {"conditions": "Postemergence, 500 g ai/ha, 0 to 100 scale, 0 no effect, 100 complete control"}, "[6]": {"conditions": "Postemergence, 2000 g ai/ha, 0 to 100 scale, 0 no effect, 100 complete control"}, "[7]": {"conditions": "Preemergence, 2000 g ai/ha, visual rating, 0 to 100 scale (0 no effect, 100 complete control)"}, "[8]": {"conditions": "preemergence, 500 g ai/ha, visual injury, 0 to 100 scale (0 no effect, 100 complete control)"}, "[9]": {"conditions": "500 g ai/ha, scale 0 to 100 (0 no effect, 100 complete control), visual, 12 to 14 days"}, "[10]": {"conditions": "125 g ai/ha, scale 0 (no effect) to 100 (complete control), visual, 12 to 14 days"}, "[11]": {"conditions": "62 g ai/ha, scale 0 to 100 (0 no effect, 100 complete control)"}, "[12]": {"conditions": "125 g ai/ha, scale 0 to 100 (0 no effect, 100 complete control)"}, "[13]": {"conditions": "250 g ai/ha, scale of 0 to 100, 0 is no effect, 100 is complete control"}, "[14]": {"conditions": "500 g ai/ha, visual rating after 12 to 14 days, scale 0 to 100 (0 no effect, 100 complete control)"}},
  "data": [
    {"smiles": "CCc1nc(C(C)(C)C)sc1C(=O)Nc1cccc(C(=O)NCC2CC2)n1", "note": "[Compound 215]", "values": [
      {"measurement": "Barnyardgrass plant response rating", "setting": "barnyardgrass [1]; [5]", "result": 0},
      {"measurement": "Plant response rating, Barnyardgrass", "setting": "barnyardgrass [1]; [6]", "result": 25},
      {"measurement": "Barnyardgrass plant response rating", "setting": "barnyardgrass [1]; [7]", "result": 35},
      {"measurement": "Barnyardgrass plant response rating", "setting": "barnyardgrass [1]; [8]", "result": 15},
      {"measurement": "Foxtail, Giant plant response rating", "setting": "giant foxtail [2]; [5]", "result": 25},
      {"measurement": "Plant response rating, Foxtail, Giant", "setting": "giant foxtail [2]; [6]", "result": 40},
      {"measurement": "Foxtail, Giant plant response rating", "setting": "giant foxtail [2]; [7]", "result": 75},
      {"measurement": "Foxtail, Giant plant response rating", "setting": "giant foxtail [2]; [8]", "result": 50},
      {"measurement": "Pigweed plant response rating", "setting": "redroot pigweed; [5]", "result": 70},
      {"measurement": "Plant response rating, Pigweed", "setting": "redroot pigweed; [6]", "result": 80},
      {"measurement": "Pigweed plant response rating", "setting": "redroot pigweed; [7]", "result": 85},
      {"measurement": "Pigweed plant response rating", "setting": "redroot pigweed; [8]", "result": 30},
      {"measurement": "Velvetleaf plant response rating", "setting": "velvetleaf; [5]", "result": 30},
      {"measurement": "Plant response rating, Velvetleaf", "setting": "velvetleaf; [6]", "result": 30},
      {"measurement": "Velvetleaf plant response rating", "setting": "velvetleaf; [7]", "result": 30},
      {"measurement": "Velvetleaf plant response rating", "setting": "velvetleaf; [8]", "result": 15},
      {"measurement": "Plant response rating, Surinam Grass", "setting": "Surinam grass; 62 g ai/ha, scale 0 to 100", "result": 0},
      {"measurement": "Plant response rating, Surinam Grass", "setting": "Surinam grass; 250 g ai/ha, scale 0-100", "result": 30},
      {"measurement": "Plant response rating, Surinam Grass", "setting": "Surinam grass; [9]", "result": 50},
      {"measurement": "Plant response rating, Cocklebur", "setting": "cocklebur; 62 g ai/ha, scale 0 to 100", "result": 0},
      {"measurement": "Plant response rating, Cocklebur", "setting": "cocklebur; [10]", "result": 0},
      {"measurement": "Plant response rating, Cocklebur", "setting": "cocklebur; 250 g ai/ha, scale 0-100", "result": 0},
      {"measurement": "Cocklebur plant response rating", "setting": "cocklebur; Preemergence, 500 g ai/ha, scale 0 to 100, 0 no effect, 100 complete control", "result": 60},
      {"measurement": "Plant response rating, Foxtail, Giant", "setting": "giant foxtail [3]; 62 g ai/ha, scale 0 to 100", "result": 0},
      {"measurement": "Plant response rating, Foxtail, Giant", "setting": "giant foxtail [3]; [10]", "result": 50},
      {"measurement": "Plant response rating, Foxtail, Giant", "setting": "giant foxtail [3]; 250 g ai/ha, scale 0-100", "result": 70},
      {"measurement": "Plant response rating, Foxtail, Giant", "setting": "giant foxtail [3]; [9]", "result": 100},
      {"measurement": "Plant response rating, Johnsongrass", "setting": "johnsongrass; 62 g ai/ha, scale 0 to 100", "result": 0},
      {"measurement": "Plant response rating, Johnsongrass", "setting": "johnsongrass; [10]", "result": 20},
      {"measurement": "Plant response rating, Johnsongrass", "setting": "johnsongrass; 250 g ai/ha, scale 0-100", "result": 50},
      {"measurement": "Plant response rating, Johnsongrass", "setting": "johnsongrass; [9]", "result": 85},
      {"measurement": "Plant response rating, Morningglory", "setting": "morningglory; 62 g ai/ha, scale 0 to 100", "result": 0},
      {"measurement": "Plant response rating, Morningglory", "setting": "morningglory; [10]", "result": 0},
      {"measurement": "Plant response rating, Morningglory", "setting": "morningglory; 250 g ai/ha, scale 0-100", "result": 0},
      {"measurement": "Plant response rating, Morningglory", "setting": "morningglory; [9]", "result": 40},
      {"measurement": "Plant response rating, Nightshade", "setting": "eastern black nightshade; 62 g ai/ha, scale 0 to 100", "result": 100},
      {"measurement": "Plant response rating, Nightshade", "setting": "eastern black nightshade; [10]", "result": 100},
      {"measurement": "Plant response rating, Nightshade", "setting": "eastern black nightshade; 250 g ai/ha, scale 0-100", "result": 100},
      {"measurement": "Plant response rating, Nightshade", "setting": "eastern black nightshade; [9]", "result": 100},
      {"measurement": "Plant response rating, Nutsedge, Yellow", "setting": "yellow nutsedge; 62 g ai/ha, scale 0 to 100", "result": 0},
      {"measurement": "Plant response rating, Nutsedge, Yellow", "setting": "yellow nutsedge; [10]", "result": 0},
      {"measurement": "Plant response rating, Nutsedge, Yellow", "setting": "yellow nutsedge; 250 g ai/ha, scale 0-100", "result": 0},
      {"measurement": "Plant response rating, Nutsedge, Yellow", "setting": "yellow nutsedge; [9]", "result": 0},
      {"measurement": "Ducksalad plant response rating", "setting": "ducksalad; [11]", "result": 40},
      {"measurement": "Ducksalad plant response rating", "setting": "ducksalad; [12]", "result": 40},
      {"measurement": "Ducksalad plant response rating", "setting": "ducksalad; [13]", "result": 60},
      {"measurement": "Plant response rating, Ducksalad", "setting": "ducksalad; [14]", "result": 80},
      {"measurement": "Barnyardgrass plant response rating", "setting": "barnyardgrass [4]; [11]", "result": 0},
      {"measurement": "Barnyardgrass plant response rating", "setting": "barnyardgrass [4]; [12]", "result": 0},
      {"measurement": "Barnyardgrass plant response rating", "setting": "barnyardgrass [4]; [13]", "result": 40},
      {"measurement": "Plant response rating, Barnyardgrass", "setting": "barnyardgrass [4]; [14]", "result": 50}
    ]}
  ]
}
